The subject of data set [1] is photosynthetic electron transport (PET) in spinach chloroplasts. As to the kind of experiment: Inhibition of photosynthetic electron transport (PET) in spinach chloroplasts, DCPIP photoreduction. The format is biochemical, Spinacia oleracea L. Conditions: DCPIP photoreduction, pH 7.2. The protocol: Chloroplasts were prepared from spinach (Spinacia oleracea L.) according to Masarovicova and Kralova. The inhibition of photosynthetic electron transport (PET) in spinach chloroplasts was determined spectrophotometrically (Genesys 6, Thermo Scientific, USA), using an artificial electron acceptor 2,6-dichlorophenol-indophenol (DCIPP) according to Kralova et al., and the rate of photosynthetic electron transport was monitored as a photoreduction of DCPIP. The measurements were carried out in phosphate buffer (0.02 mol/L, pH 7.2) containing sucrose (0.4 mol/L), MgCl2 (0.005 mol/L) and NaCl (0.015 mol/L). The chlorophyll content was 30 mg/L in these experiments and the samples were irradiated (~100 W/m^2) from 10 cm distance with a halogen lamp (250 W) using a 4 cm water filter to prevent warming of the samples (suspension temperature 22 °C). The studied compounds were dissolved in DMSO due to their limited water solubility.

For data set [2], the system named is methicilin resistant Staphylococcus aureus H 5996/08. In words: In vitro anti-bacterial susceptibility, Mueller-Hinton broth. The format is cell-based. Conditions: MRSA, methicillin-resistant Staphylococcus aureus, MIC = IC90 value, NA = no significant activity.
For data set [3], the system named is photosynthetic apparatus of spinach chloroplasts (PS 2 / PS 1). In words: Site of action: restoration of PET by artificial electron donors (DPC, DCPIPH2). It is filed as biochemical, Spinacia oleracea L. How it is done: To further determine the site of action of the studied compounds, experiments with 1,5-diphenylcarbazide (DPC) were performed. DPC is an artificial electron donor for PS 2 with a known site of action in the Z^•/D^• intermediate. The site of action of the artificial electron acceptor 2,6-dichlorophenol-indophenol (DCPIP) used for monitoring the Hill reaction is plastoquinone on the acceptor side of PS 2 [51]. Thus, if the part of the photosynthetic electron transport chain between manganese cluster and Z/D is inhibited, then DPC will restore PET through PS 2.

The nature of data set [4]: Lipophilicity determination by RP-HPLC (capacity factor k / log k). The settings on record: C18 column, MeOH 70% / H2O 30%, isocratic. It is filed as physicochemical. The protocol:
Hydrophobicities (log P/Clog P) of the compounds 1-5 and 8-14 were calculated using two commercially available programs (ChemDraw Ultra 10.0 and ACD/LogP) and also measured by means of the RP-HPLC determination of capacity factors k with subsequent calculation of log k. The procedure was performed under isocratic conditions with methanol as an organic modifier in the mobile phase using an end-capped non-polar C18 stationary RP column. The results are shown in Table 1 and illustrated in Figure 1.
A Waters Alliance 2695 XE HPLC separation module and a Waters Photodiode Array Detector 2996 (Waters Corp., Milford, MA, USA) were used. A Symmetry® C18 5 μm, 4.6 × 250 mm, Part No. WAT054275 (Waters Corp., Milford, MA, USA) chromatographic column was used. The HPLC separation process was monitored by Empower™ 2 Chromatography Data Software, Waters 2009 (Waters Corp., Milford, MA, USA). A mixture of MeOH p.a. (70%) and H2O-HPLC – Mili-Q Grade (30%) was used as a mobile phase. The total flow of the column was 1.0 mL/min, injection volume 30 μL, column temperature 30 °C and sample temperature 10°C. The detection wavelength of 210 nm was chosen. The KI methanolic solution was used for the dead time (tD) determination. Retention times (tR) were measured in minutes. The capacity factors k were calculated using the Empower™ 2 Chromatography Data Software according to formula k = (tR - tD)/tD, where tR is the retention time of the solute, whereas tD denotes the dead time obtained using an unretained analyte. Log k, calculated from the capacity factor k, is used as the lipophilicity index converted to log P scale.

The test system of data set [5] is Trichophyton mentagrophytes 445. As to the kind of experiment: In vitro anti-fungal susceptibility, broth microdilution. Conditions: MIC = IC50 value, NA = no significant activity. It is filed as cell-based. How it is done:
(§1) The broth microdilution test was used for the assessment of in vitro anti-fungal activity of the synthesized compounds against Absidia corymbifera 272 (AC) and Trichophyton mentagrophytes 445 (TM). Fluconazole (FLU) was used as the standard since it is a clinically used anti-mycotic drug. The procedure was performed with a two-fold dilution of the compounds in […]., Prague, Czech Republic) buffered to pH 7.0 with 0.165 mol of 3-morpholino-propane-1-sulfonic acid (MOPS, Sigma, Germany). […] Drug-free controls were included. […] The values of the minimum inhibitory concentration (MICs) were determined after 24 and 48 h of static incubation at 35 °C. For T. mentagrophytes, the final MICs were determined after 72 and 120 h of incubation.
A general note: Dilution methods test growth across graded concentrations, often in twofold steps.

A further data set deals with Absidia corymbifera 272. The data set is described as above. It is filed as cell-based. The protocol: as §1
Data set [6] deals with Staphylococcus epidermidis H 6966/08. As to the kind of experiment: In vitro anti-bacterial susceptibility, Mueller-Hinton broth. The settings on record: MIC = IC90 value, NA = no significant activity. It is filed as cell-based.
Data set [7] relates to photosynthetic apparatus of spinach chloroplasts. As to the kind of experiment: EPR spectra of treated spinach chloroplasts. The settings on record: 0.05 M of compound, under irradiation, versus untreated chloroplasts. The format is biochemical, Spinacia oleracea L. How it is done: Experiments were then performed to determine the site of action of the studied compounds in the photosynthetic apparatus. In Figure 2, EPR spectra of untreated chloroplasts and those treated with the very effective PET inhibitor, compound 3 (Table 2), are presented. The EPR spectrum of untreated chloroplasts recorded in the dark consists of the typical signal IIslow (g = 2.0046, ΔBpp= 2 mT, see Figure 2A - full line). An increase of EPR signal intensity in the light represents signal IIvery fast (g = 2.0046, ΔBpp= 2 mT; in Figure 2A it is the difference between dotted and full lines). These EPR signals belong to the intermediates D^• and Z^• respectively, which are tyrosine radicals situated in the 161st positions in D2 (for D) and D1 (for Z) proteins at the donor side of PS 2 [48, 49]. […]
EPR spectra were registered by the equipment ERS 230 (ZWG, Acad. Sci., Berlin, Germany), which operates in X-band (~9.3 GHz), with modulation amplitude 0.5 mT and microwave power 5 mW at room temperature. The samples containing chlorophyll (3.2 g/L) were measured in a flat quartz cell and their irradiation (~400 μE/m^2s PAR) was carried out directly in the resonance cavity with a 250 W halogen lamp from 0.5 m distance through 5 cm water filter.

Details of data set [8]: method as in PMID 1151976. The settings on record: parameter of the substituents in the anilide part; cited from earlier work.
The subject of data set [9] is photosynthetic electron transport (PET) in spinach chloroplasts. Set-up: method as in earlier work. Conditions: standard, read-out: PET inhibition IC50; cited from earlier work.

The structures appear in SMILES notation. In brackets after ≈: the same amount, converted by molar mass. Several values for one entry are separate records, joined by “and”; a condition that tells them apart may be missing. Equal values may be shown once. Read-outs that look alike come from different tables or passages of the source. Bounds are passed on as bounds.

Regarding `COc1ccccc1NC(=O)c1ccccc1O` [Compound 3, 2-Hydroxy-N-(2-methoxyphenyl)benzamide], the half-maximal inhibitory concentration (IC50) (as a rule, the midpoint of a concentration-inhibition curve) in data set [1] came to 1600 nM. In addition, the MIC – broadly, the smallest concentration in the dilution series that meets the test's criterion for growth inhibition – in data set [2] (24 h, read-out: MIC MRSA 24 h) was 500 µM (≈ 122 µg/mL); in data set [2] (48 h, read-out: MIC MRSA 48 h), above 500 µM; in data set [5] (72 h, read-out: MIC TM 72 h) it was 125 µM (≈ 30.4 µg/mL); in [5] (120 h, read-out: MIC TM 120 h), 125 µM (≈ 30.4 µg/mL); with Absidia corymbifera 272 (Lichtheimia corymbifera, 272, 24 h, read-out: MIC AC 24 h) it was 125 µM (≈ 30.4 µg/mL); with Absidia corymbifera 272 (Lichtheimia corymbifera, 272, 48 h, read-out: MIC AC 48 h) it was 125 µM (≈ 30.4 µg/mL). Further, the MIC in [6] (H6966/08, 24 h, read-out: MIC SE 24 h) is above 500 µM; in [6] (H6966/08, 48 h, read-out: MIC SE 48 h) it was above 500 µM. Moreover, the “restoration of PET through PS 1 after addition of DCPIPH2” value in [3] (DCPIPH2 40 μmol/L added to treated chloroplasts) is listed as “completely restored”. Moreover, the “restoration of PET through PS 2 after addition of DPC” value in [3] (DPC 2 mmol/L added to treated chloroplasts) is on record as “not restored”. The log k in [4] was found to be 0.6770. In addition, the “intensity of the EPR signal (signal I) in irradiated chloroplasts” value in data set [7] is on record as “marked increase”. Also, in data set [8], the “MR (bulk parameter, reflecting bulkiness)” value was 6.5. In addition, the “σ (Hammett's parameter)” value in data set [8] was 0.00.

Regarding `CN(C)C(=O)Nc1ccc(Cl)c(Cl)c1` [DCMU, 3-(3,4-dichlorophenyl)-1,1-dimethylurea], the IC50 in data set [9] was ~1900 nM and 1900 nM.

These data come from paper PMC6259458, “Investigating the Spectrum of Biological Activity of Ring-Substituted Salicylanilides and Carbamoylphenylcarbamates” (Molecules, 2010).
